Legend:
[1] = tested on: Human umbilical vascular endothelial cells (HUVEC); assay: Invasion assay of HUVEC through Matrigel/Type IV collagen coated filter; type: cell-based; conditions: 10 μg/ml Wondonin A medium, bFGF, 18 hours
Description: Powdered medium 199 (M 199, Sigma Chemical Co., U.S.A.) and 2.2 g (per liter) of sodium bicarbonate was dissolved in double distilled water, pH of the medium was adjusted to 7.2 with HCl, and followed by sterile filtration on a […] Millipore filter. Then, a medium was finally prepared by supplementing, just before use, with 20% (w/v) FBS (fetal bovine serum ), 1% (w/v) Penicillin-Streptomycin (P-S), 3 ng/ml bFGF (basic fibroblast growth factor, a growth factor for angiogenesis) and 100 μg/ml heparin. Human umbilical vascular endothelial cells (“HUVEC”) purchased from ATCC (American Type Culture Collection) were seeded to 6 ml of the medium thus prepared in a T25 flask (25 cm^2) and grown to form a monolayer in an incubator at 37° C. under an environment of 5% (v/v) CO2 and saturated humidity, and then subcultured in a medium containing 0.05% (w/v) Trypsin-EDTA.
For invasion assay, lower surface of the polycarbonate filter (pore size: 8 μm) equipped in an insert chamber was coated with 5 μg of Type IV collagen and upper surface of the filter was coated with 25 μg of Matrigel (Collaborative Research, Inc., Waltham, Mass., U.S.A.). […] After staining of the fixed cells with haematoxillin and eosin, Matrigel was detached from the filter and HUVEC cells which have passed through the filter were counted. […]

[2] = tested on: vascular endothelial cells; assay: Viability of vascular endothelial cells (Trypan Blue); type: cell-based, Human; conditions: 48 hour incubation, medium without FBS
Description: Vascular endothelial cells grown on Example 3 were placed onto a 24-well plate with 5×10^4 cells/well starting cell number in 1 ml (per well) of the same medium as in Example 3 except for containing 10% (v/v) FBS, and incubated at 37° C. under an environment of 5% (v/v) CO2 for 24 hours to the level of 80% cell confluency. Then, cells were rinsed with 1 ml of PBS and 1 ml of the same medium without FBS was added and then Wondonin A was added to reach the concentrations of […], respectively. After 48 hour incubation, medium was removed and cells were harvested by trypsinization. Cells were stained in a medium containing 0.4% (w/v) Trypan Blue at room temperature and then counted with haemacytometer. The cell viability was assessed based on total cell number and stained cell number (see: Table 1).

[3] = tested on: chick embryo chorioallantoic membrane; assay: Chick embryo chorioallantoic membrane assay; type: in vivo; conditions: ratio of embryos with avascular zone to total embryos; cover slip on CAM, 2 days incubation
Description: On day 3.5, a part of egg shell was cracked gently, and on day 4.5, a cover slip containing Wondonin A (prepared by drying […] Wondonin A in methanol on a cover slip) or a control cover slip (prepared by drying 2 μl of methanol on a cover slip) was placed on the chorioallantoic membrane (CAM) through the crack and then the crack was sealed. After incubation for 2 days, 10% fat emulsion was injected to CAM, which was examined under a microscope. The embryos with a clear avascular zone (inhibition of angiogenesis) were counted and inhibitory effect of Wondonin A on angiogenesis was evaluated by calculating the ratio of the number of embryo with avascular zone to the total number of embryo tested (see: Table 2).

[4] = Physicochemical data of Wondonin A
From the text: The spectrophotomeric data of Wondonin A are as follows: […]

For `CN(C)CCc1cn(C(c2ccc(O)c(O)c2)C2Oc3ccc(/C=C/OS(=O)(=O)[O-])cc3O2)cn1.[Na+]` (stereo not drawn) [Wondonin A], the “reduction in a cell number passed through the filter compared to the control group” value [1] was 66%, the “Viability (%)” value ([2]; Wondonin A 1 μg/ml) was 98% and the “Viability (%)” value ([2]; Wondonin A 10 μg/ml) was 97%. For the same compound, the “Inhibition of angiogenesis (%)” value [3] was 89%, the “solubility in polar organic solvents” value ([4]; methanol and dimethylsulfoxide) was “highly soluble” and the stability ([4]; pale-yellow semi-solid at room temperature) was “stable”.
